Assay results as given in patent publication US6737383B1, “Herbicidal oxadiazolidines” (priority 1999, dated 2004).

Key:
[1] = tested on: surinam grass; assay: Test B pre/postemergence surinam grass; type: in vivo, Brachiaria decumbens
Outline: (§1)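 Response is a visual 0-to-10 score relative to untreated plants, where 0 means no effect and 10 means complete control, taken twelve to sixteen days after application. Treatments went onto soil at planting and onto foliage of 1- to 4-leaf plants, using a surfactant-containing non-phytotoxic solvent.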

[2] = tested on: duck salad; assay: Test B flood test duck salad; type: in vivo, Heteranthera limosa
Outline: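 Flood test on plants grown to the 2-leaf stage; treated plants kept in greenhouse twelve to sixteen days, then visually rated against controls on a 0 (no effect) to 10 (complete control) scale.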

[3] = tested on: giant foxtail; assay: Test B pre/postemergence giant foxtail; type: in vivo, Setaria faberii
Outline: as §1

[4] = tested on: corn; assay: Test B pre/postemergence corn; type: in vivo, Zea mays
Outline: as §1

[5] = tested on: rape; assay: Test B pre/postemergence rape; type: in vivo, Brassica napus
Outline: as §1

[6] = tested on: morningglory; assay: Test B pre/postemergence morningglory; type: in vivo, Ipomoea hederacea
Outline: as §1

[7] = tested on: crabgrass; assay: Test B pre/postemergence crabgrass; type: in vivo, Digitaria sanguinalis
Outline: as §1

[8] = tested on: soybean; assay: Test B pre/postemergence soybean; type: in vivo, Glycine max
Outline: as §1

[9] = tested on: pigweed; assay: Test B pre/postemergence pigweed; type: in vivo, Amaranthus retroflexus
Outline: as §1

[10] = tested on: velvetleaf; assay: Test B pre/postemergence velvetleaf; type: in vivo, Abutilon theophrasti
Outline: as §1

[11] = tested on: bedstraw; assay: Test B pre/postemergence bedstraw; type: in vivo, Galium aparine
Outline: as §1

[12] = tested on: wheat; assay: Test B pre/postemergence wheat; type: in vivo, Triticum aestivum
Outline: as §1

[13] = tested on: purple nutsedge; assay: Test B pre/postemergence purple nutsedge; type: in vivo, Cyperus rotundus
Outline: as §1

[14] = tested on: sugar beet; assay: Test B pre/postemergence sugar beet; type: in vivo, Beta vulgaris
Outline: as §1

[15] = tested on: cocklebur; assay: Test B pre/postemergence cocklebur; type: in vivo, Xanthium strumarium
Outline: as §1

[16] = Postemergence, Rate 125 g/ha, scale of 0 to 10 where 0 is no effect and 10 is complete control
[17] = Preemergence, Rate 62 g/ha, scale 0 to 10 (0 no effect, 10 complete control)
[18] = Preemergence, Rate 125 g/ha, 0 is no effect, 10 is complete control
[19] = Preemergence, Rate 250 g/ha, scale 0 to 10, 0 is no effect, 10 is complete control
[20] = Preemergence, Rate 500 g/ha, scale 0 to 10 (0 no effect, 10 complete control)
[21] = Rate 250 g/ha, Postemergence, scale 0 to 10, 0 is no effect, 10 is complete control
[22] = Rate 62 g/ha, Postemergence, scale of 0 to 10 where 0 is no effect and 10 is complete control
[23] = Rate 500 g/ha, Postemergence, scale 0 to 10, 0 no effect, 10 complete control

CC(C)N(C(=O)n1oc(=O)n(-c2ccnn2C)c1=O)c1ccc(F)cc1 [Compound 124]
B. signalgrass plant response rating ([1]; Postemergence, Rate 62 g/ha, scale 0 to 10, 0 is no effect, 10 is complete control): 0
B. signalgrass plant response rating [1, 16]: 0
B. signalgrass plant response rating [1, 17]: 0
B. signalgrass plant response rating (0 to 10 scale) [1, 18]: 0
B. signalgrass plant response rating [1, 19]: 0
B. signalgrass plant response rating [1, 20]: 0
Plant response rating, B. signalgrass [1, 21]: 0
B. signalgrass plant response rating ([1]; Rate 500 g/ha, Postemergence, scale of 0 to 10 where 0 is no effect and 10 is complete control): 0
Ducksalad plant response rating ([2]; Postemergence (flood test species), Rate 125 g/ha, scale of 0 to 10 where 0 is no effect and 10 is complete control): 0
Ducksalad plant response rating ([2]; Rate 62 g/ha, Postemergence section, flood test species, scale of 0 to 10 where 0 is no effect and 10 is complete control): 0
Plant response rating, Ducksalad ([2]; Rate 250 g/ha, Postemergence (flood test), scale 0 to 10, 0 is no effect, 10 is complete control): 0
Ducksalad plant response rating ([2]; Rate 250 g/ha, headed Pre-emergence (flood test species), scale 0 to 10 (0 no effect, 10 complete control)): 0
Plant response rating, Ducksalad ([2]; Rate 500 g/ha, headed Pre-emergence (flood test species), scale 0 to 10 (0 no effect, 10 complete control)): 0
Ducksalad plant response rating ([2]; Rate 500 g/ha, listed under Postemergence (flood test species), scale 0 to 10, 0 no effect, 10 complete control): 0
Ducksalad plant response rating ([2]; Rate 1000 g/ha, Pre-emergence (as headed), scale 0 to 10): 0
Ducksalad plant response rating ([2]; Rate 2000 g/ha, Pre-emergence (as headed), scale 0 to 10): 0
Giant foxtail plant response rating [3, 16]: 0
Giant foxtail plant response rating [3, 17]: 0
Giant foxtail plant response rating (0 to 10 scale) [3, 18]: 0
Giant foxtail plant response rating [3, 19]: 0
Giant foxtail plant response rating [3, 20]: 0
Giant foxtail plant response rating [3, 22]: 0
Plant response rating, Giant foxtail [3, 21]: 0
Giant foxtail plant response rating [3, 23]: 0
Corn plant response rating [4, 16]: 0
Corn plant response rating [4, 17]: 0
Corn plant response rating (0 to 10 scale) [4, 18]: 0
Corn plant response rating [4, 19]: 0
Corn plant response rating [4, 20]: 0
Corn plant response rating [4, 22]: 0
Plant response rating, Corn [4, 21]: 0
Corn plant response rating [4, 23]: 0
Rape plant response rating [5, 16]: 0
Rape plant response rating [5, 17]: 0
Rape plant response rating (0 to 10 scale) [5, 18]: 0
Rape plant response rating [5, 19]: 0
Rape plant response rating [5, 20]: 0
Rape plant response rating [5, 22]: 0
Plant response rating, Rape [5, 21]: 0
Rape plant response rating [5, 23]: 0
Morningglory plant response rating [6, 16]: 0
Morningglory plant response rating [6, 17]: 0
Morningglory plant response rating (0 to 10 scale) [6, 18]: 0
Morningglory plant response rating [6, 19]: 0
Morningglory plant response rating [6, 20]: 0
Morningglory plant response rating [6, 22]: 0
Plant response rating, Morningglory [6, 21]: 0
Morningglory plant response rating [6, 23]: 2
Crabgrass plant response rating [7, 16]: 0
Crabgrass plant response rating [7, 17]: 0
Crabgrass plant response rating (0 to 10 scale) [7, 18]: 0
Crabgrass plant response rating [7, 19]: 0
Crabgrass plant response rating [7, 20]: 0
Crabgrass plant response rating [7, 22]: 0
Plant response rating, Crabgrass [7, 21]: 0
Crabgrass plant response rating [7, 23]: 0
Soybean plant response rating [8, 16]: 3
Soybean plant response rating [8, 17]: 0
Soybean plant response rating (0 to 10 scale) [8, 18]: 0
Soybean plant response rating [8, 19]: 0
Soybean plant response rating [8, 20]: 0
Soybean plant response rating [8, 22]: 0
Plant response rating, Soybean [8, 21]: 4
Soybean plant response rating [8, 23]: 5
Redroot pigweed plant response rating [9, 16]: 0
Redroot pigweed plant response rating [9, 17]: 0
Redroot pigweed plant response rating (0 to 10 scale) [9, 18]: 0
Redroot pigweed plant response rating [9, 19]: 0
Redroot pigweed plant response rating [9, 20]: 0
Redroot pigweed plant response rating [9, 22]: 0
Plant response rating, Redroot pigweed [9, 21]: 0
Redroot pigweed plant response rating [9, 23]: 0
Velvetleaf plant response rating [10, 16]: 0
Velvetleaf plant response rating [10, 17]: 0
Velvetleaf plant response rating (0 to 10 scale) [10, 18]: 0
Velvetleaf plant response rating [10, 19]: 0
Velvetleaf plant response rating [10, 20]: 0
Velvetleaf plant response rating [10, 22]: 0
Plant response rating, Velvetleaf [10, 21]: 0
Velvetleaf plant response rating [10, 23]: 0
Bedstraw plant response rating [11, 17]: 0
Bedstraw plant response rating (0 to 10 scale) [11, 18]: 0
Bedstraw plant response rating [11, 19]: 0
Bedstraw plant response rating [11, 20]: 0
Bedstraw plant response rating [11, 23]: 0
Wheat plant response rating [12, 16]: 0
Wheat plant response rating [12, 17]: 0
Wheat plant response rating (0 to 10 scale) [12, 18]: 0
Wheat plant response rating [12, 19]: 0
Wheat plant response rating [12, 20]: 0
Wheat plant response rating [12, 22]: 0
Plant response rating, Wheat [12, 21]: 0
Wheat plant response rating [12, 23]: 0
Nutsedge plant response rating [13, 16]: 0
Nutsedge plant response rating [13, 17]: 0
Nutsedge plant response rating (0 to 10 scale) [13, 18]: 0
Nutsedge plant response rating [13, 19]: 0
Nutsedge plant response rating [13, 20]: 0
Nutsedge plant response rating [13, 22]: 0
Plant response rating, Nutsedge [13, 21]: 0
Nutsedge plant response rating [13, 23]: 0
Sugarbeets plant response rating [14, 16]: 0
Sugarbeets plant response rating [14, 17]: 0
Sugarbeets plant response rating (0 to 10 scale) [14, 18]: 0
Sugarbeets plant response rating [14, 19]: 0
Sugarbeets plant response rating [14, 20]: 0
Sugarbeets plant response rating [14, 22]: 0
Plant response rating, Sugarbeets [14, 21]: 0
Sugarbeets plant response rating [14, 23]: 0
Cocklebur plant response rating [15, 16]: 0
Cocklebur plant response rating [15, 17]: 0
Cocklebur plant response rating [15, 19]: 0
Cocklebur plant response rating [15, 20]: 0
Cocklebur plant response rating [15, 22]: 0
Plant response rating, Cocklebur [15, 21]: 0
Cocklebur plant response rating [15, 23]: 0
